Non-standard residues stand in square brackets, D forms with d. Primed or numbered codes have the meaning given here. No end group written: not given here. Ida = iminodiacetic acid linker, its two carboxyls bind the Lys side-chain amines of two peptides, giving a homodimer; Ida(3) = iminodiacetic acid linker, Lys side-chain amines bound to its two carboxyl groups; Ida(4) = iminodiacetic acid linker (dimerization linker bound to lysine side chain); Ida″ = iminodiacetic acid linker bound to the Lys side-chain amine, forming a dimer; d(hPhe) = N[C@H](CCc1ccccc1)C(=O)O; Ahx = NCCCCCC(=O)O

The first assay has as its system HUVECs. In kind it is cell-based. As to conditions: 48 h. The procedure, abridged:
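HUVECs seeded at 5,000 cells/well in EBM with 2% FCS, adhered ≥12 hours, then stimulated with bFGF 10 ng/ml or VEGF 5 ng/ml plus varying peptide concentrations. After 48 hours at 37 ° C, 5% CO2, proliferation inhibition read by BrdU incorporation.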
With `CC[C@H](C)[C@H](NC(=O)[C@H](C)NC(=O)[C@@H](NC(=O)[C@H](CCSC)NC(=O)[C@H](CCC(N)=O)NC(=O)[C@H](CCCNC(=N)N)NC(=O)[C@H](CCCNC(=N)N)NC(=O)[C@H](CCCNC(=N)N)NC(=O)[C@H](CCCNC(=N)N)NC(=O)[C@H](C)NC(C)=O)C(C)C)C(=O)N[C@@H](Cc1ccc(O)cc1)C(=O)N[C@@H](Cc1ccccc1)C(=O)N[C@@H](CCCCNC(=O)CN(CC(=O)NCCCC[C@H](NC(=O)[C@H](Cc1ccccc1)NC(=O)[C@H](Cc1ccc(O)cc1)NC(=O)[C@@H](NC(=O)[C@H](C)NC(=O)[C@@H](NC(=O)[C@H](CCSC)NC(=O)[C@H](CCC(N)=O)NC(=O)[C@H](CCCNC(=N)N)NC(=O)[C@H](CCCNC(=N)N)NC(=O)[C@H](CCCNC(=N)N)NC(=O)[C@H](CCCNC(=N)N)NC(=O)[C@H](C)NC(C)=O)C(C)C)[C@@H](C)CC)C(N)=O)C(=O)CCNC(=O)OC(C)(C)C)C(N)=O` [Peptide 385], the IC50 – broadly, the concentration that gives 50% inhibition – is less than 10 µM.

Staying with this assay, now noted: HUVEC proliferation, bFGF at 10 ng/ml or VEGF at 5 ng/ml, 48 hours, BrdU incorporation; read-out: IC50 on HUVECs.
For “377 (Ac-ARRRRQRVAIMFK-NH2; not fully specified (residue 13); also: homodimer via Ida linker on Lys13 side chain, Boc on Ida amine) [compound 377]”, the half-inhibitory concentration (IC50) was less than 10 µM. The same measure, in the same setting: the result for TKRKRKKQQRVKIAYEEIFV [compound 74] reads greater than 30 µM; that for “265 (Ac-RRRRRQAVAIGFK; not fully specified (C-terminus); also: homodimer: side chain of Lys13 bound to an Ida linker) [compound 265]”, less than 10 µM.

As for “202 (Ac-RRAARQRVRIIF; also: dimer: C-terminal Phe bound to an amino group of a Lys linker, 2 chains per Lys) [compound 202]”, the IC50 was less than 10 µM.

On to KTKRKRIKQRVKRAYEEIF [compound 137], for which the IC50 was greater than 30 µM. As for “234 (XRRRRQRVHIIF; Xaa = Acylated Histidine; Dimeric peptide wherein the C terminus of Phe in position 12 of one peptide chain is covalently bound to one of the amino groups of a Lysine linker and Phe of the remaining peptide chain is covalently bound to the other amino group of the Lysine linker.) [compound 234]”, the IC50 is less than 10 µM. For KTKRKRKKQRVKIA [compound 37], the IC50 was greater than 30 µM. Turning to “416 (Ac-ARRRRQAVRIKF; not fully specified (residue 11); also: homodimer via Ida linker on Lys side chains, linker at 11 via Ida, other end not in the chain) [compound 416]”, the IC50 is less than 10 µM. “451 (Ac-NRRRRQAVAIVFK-NH2; also: homodimer via Ida linker at K13) [compound 451]”: the IC50 was greater than 30 µM. Same read-out and setting: then “201 (Ac-RARRRQRVAIIF; also: dimer: C-terminal Phe bound to an amino group of a Lys linker, 2 chains per Lys) [compound 201]”, with less than 10 µM. Still for that read-out and setting: the result for “426 (Ac-ARRRRQYVAIYFK; not fully specified (residue 13, C-terminus); also: homodimer of residues 1-13 via Ida linker on Lys13 side chain) [compound 426]” reads less than 10 µM; that for “170 (Ac-RRRRRQRVRIIFK; also: homodimer via Ida-PEG 20 kDa linker on Lys13 side chains) [compound 170]”, less than 10 µM.

For the compound KTKKQRVKIAYEEIFVQNM [compound 57], the concentration for half-maximal inhibition (IC50) was greater than 30 µM. The same measure, in the same setting: the result for “424 (Ac-ARRRRQWVAIYFK; not fully specified (residue 13, C-terminus); also: homodimer of residues 1-13 via Ida linker on K13 side chain) [compound 424]” reads less than 10 µM. Same read-out and setting: the result for “479 (Ac-PRRRVQAVAIYFK(Ida(3)); not fully specified (C-terminus); also: homodimer via Ida linker on Lys13 side chain) [compound 479]” reads 10 to 30 µM; that for KTKRKRKKQRVKIIFV [compound 85], less than 10 µM. Still for that read-out and setting: the result for “441 (Ac-RRRRTQAVAIYFK(Ida(4)); not fully specified (C-terminus); also: homodimer via Ida linker at K13) [compound 441]” reads less than 10 µM; that for “400 (Ac-DRRRRQAVAIYFK; not fully specified (residue 13, C-terminus); also: homodimer of residues 1-13 via Ida linker at Lys13 side chain) [compound 400]”, less than 10 µM; that for “435 (Ac-RRRRGQAVAIYFK(Ida(4)); not fully specified (C-terminus); also: homodimer via Ida linker at K13) [compound 435]”, less than 10 µM.

For KTKRKRKKQRVKIAYEEIFVKNM [compound 5], the IC50 was less than 10 µM. With “284 (Ac-RRRRHQHVAIYFK-NH2; not fully specified (residue 13); also: homodimer: Lys13 side chain bound to Ida linker) [compound 284]”, the IC50 was less than 10 µM. Same read-out and setting: then “240 (Ac-RRHHRQRVRIIF; also: dimer via C-terminal Phe to Lys linker) [compound 240]”, with less than 10 µM; and “500 (Ac-PRRNRQAVAIYFK(Ida″); not fully specified (C-terminus); also: homodimer via Ida linker on Lys13 side chain) [compound 500]”, with less than 10 µM. For the compound KTKRKRKKQRVKIAYEEI [compound 17], the IC50 was in the range of 10 to 30 µM. The same measure, in the same setting: the result for “508 (Ac-CNGRCGGARRRRQRVAIYFK; not fully specified (C-terminus); cysteine pairing not given here; also: homodimer via Ida linker at Lys20 side chain) [compound 508]” reads less than 10 µM; that for “1 ([Ahx]RTRRRRRRQRVRIAYEEIFVRNM) [compound 1]”, less than 10 µM; that for “475 (Ac-PRRRNQAVAIYFK(Ida(3)); not fully specified (C-terminus); also: homodimer via Ida linker on Lys13 side chain) [compound 475]”, less than 10 µM. Still for that read-out and setting: then “430 (Ac-ARRRRQAVAIK(Ida(4))YF; also: homodimer via Ida linker at K11) [compound 430]”, with less than 10 µM.

For the compound RKRKKQQRVKIAYEEIFV [compound 76], the concentration for half-maximal inhibition (IC50) is greater than 30 µM. For “313 (Ac-RARRRQAVAIGFK(Ida)-NH2; also: homodimer via Ida linker on Lys13 side chain) [compound 313]”, the IC50 is 10 to 30 µM.

In the case of “373 (Ac-ARRRRQRVA[d(hPhe)]YFK(Ida(3))-NH2; also: homodimer via Ida linker on Lys13 side chain, Boc on Ida amine) [compound 373]”, the IC50 was 10 to 30 µM. Still for that read-out and setting: then “252 (Ac-ARRRRQRVAIIF[dK]; not fully specified (C-terminus); also: homodimer: side chain of Lys13 bound to an Ida linker) [compound 252]”, with less than 10 µM; and “502 (Ac-PRRHRQAVAIYFK; not fully specified (residue 13, C-terminus); also: homodimer via Ida linker on Lys13 side chain) [compound 502]”, with 10 to 30 µM.

For the compound “405 (Ac-LRRRRQAVAIYFK(Ida(3))-NH2; also: homodimer via Ida linker on Lys13 side chain, Boc on Ida amine) [compound 405]”, the IC50 is less than 10 µM. On the same count and under the same terms, the result for “186 (Ac-RRHRRQRVRIIF; also: homodimer via C-terminal Lys linker) [compound 186]” reads less than 10 µM. As for “301 (Ac-RRRRRQAVRITITFK-NH2; not fully specified (residue 15); also: homodimer: Lys15 side chain bound to Ida linker) [compound 301]”, the concentration for half-maximal inhibition (IC50) was less than 10 µM. In the case of “236 (Ac-RHRHRQRVRIIF; also: dimer via C-terminal Phe to Lys linker) [compound 236]”, the half-maximal inhibitory concentration (IC50) was less than 10 µM. On the same count and under the same terms, the result for “346 (Ac-ARRRRQRVAIYEK-NH2; not fully specified (residue 13); also: homodimer of residues 1-13 via Ida linker on Lys13 side chain) [compound 346]” reads greater than 30 µM.

In the case of “349 (Ac-ARRRRQRVAIYPK-NH2; not fully specified (residue 13); also: homodimer of residues 1-13 via Ida linker on Lys13 side chain) [compound 349]”, the half-inhibitory concentration (IC50) was greater than 30 µM. Turning to “407 (Ac-NRRRRQAVAIYFK; not fully specified (residue 13, C-terminus); also: homodimer via Ida linker on Lys side chains, linker at 13 via Ida, other end not in the chain) [compound 407]”, the concentration for half-maximal inhibition (IC50) is less than 10 µM. Regarding “422 (Ac-ARRRRQTVAIYFK; not fully specified (residue 13, C-terminus); also: homodimer of residues 1-13 via Ida linker on K13 side chain) [compound 422]”, the IC50 was less than 10 µM. Same read-out and setting: the result for “425 (Ac-ARRRRQRVAIKF; not fully specified (residue 11); also: homodimer of residues 1-12 via Ida linker on Lys11 side chain) [compound 425]” reads less than 10 µM; that for “175 (Ac-RRARRQRVRIIF; also: homodimer via C-terminal Lys linker) [compound 175]”, less than 10 µM. Consider KTKAARKKQRVKIAYEEIFVQNM [compound 55], for which the 50% inhibitory concentration (IC50) is greater than 30 µM.

The values are drawn from patent publication US20070203066A1, “Compositions and methods for inhibiting cellular proliferation” (priority 2005, published 2007).
